Experimental data taken from patent publication US20140073793A1, “Germanium-containing camptothecin analogues” (BioNumeric Pharmaceuticals, Inc., priority 2012, published 2014).
Where two headings read alike, the source gives them in different places.

Assays:
A2780/DX5 cells = test: cells; type: cell-based, human
Protocol: (§1) Wild type human ovarian cancer cells (A2780/WT) and doxorubicin-resistant human ovarian cancer cells (A2780/DX5) were cultured in RPMI 1640 medium supplemented with 10% fetal bovine serum and 2 mM glutamine, and grown in a 37° C. incubator with 5% CO2. BNP1350 (also designated 7-[2-trimethylsilyl)ethyl]-20(S)-camptothecin; BNP1350; and Karenitecin®); BNP1394 (also designated 7-[2′-trimethylgermanyl]ethyl-20(S) camptothecin; Topotecan; and 9-NH2-camptothecin were synthesized and purified at BioNumerik Pharmaceuticals, Inc., and dissolved in DMSO for use in cytotoxicity experiments where inhibition of cell growth was measured using the sulforhodamine B (SRB) assay to assess cytotoxicity and absorbance at 570 nm (A570) in order to calculate the percentage of cell control (or percent cell survival) SRB assay. See. e.g., Skehan P., Stieng R., Scudiero D., et al. New colorimetric cytotoxicity assay for anticancer-drug screen. J. Natl. Cancer Inst. 82:1107-1112 (1990)).
(§2) Briefly, cells were seeded (500 cells/well in 100 μL volume) to 96-well microliter plates and allowed to attach for 24 hours prior to treatment with BNP1350, BNP1394, Topotecan, and 9-NH2-camptothecin for 2 hours. Following this 2 hour treatment, BNP1350, BNP1394, Topotecan, and 9-NH2-camptothecin were removed, cells were washed with drug-free media (200 μL) and then drug-free media (200 μL) was added to the cells and cells were allowed to continue growing at 37° C. with 5% CO2 before the SRB assay was performed (total experiment time from time of seeding was 5 days, during which a total of five (5) cell-doublings occurred).
(§3) Wild-type human ovarian cancer cells (A2780/WT) and doxorubicin-resistant human ovarian cancer cells (A2780/DX5) were cultured in RPMI 1640 medium supplemented with 10% fetal bovine serum and 2 mM L-glutamine, and grown in a 37° C. incubator with 5% CO2. Population doubling times for the two cell lines used in this study encompassed a total of five cell doublings corresponding to approximately 5 days for A2780/WT and A2780/DX5 cells. Both cell lines were maintained as monolayered cultures in T-25 or T-75 flasks and then seeded to microliter plate wells for experiments described herein.
(§4) In brief, cells were seeded (500 cells/well in 100 μL total volume) into 96-well microliter plates and allowed to attach for 24 hours prior to treatment with BNP1350, BNP1394, Topotecan, or 9-NH2-camptothecin for 2 hours. The aforementioned compounds were dissolved in DMSO for use in cytotoxicity experiments where inhibition of cell growth was measured using the SRB assay.
(§5) Following this 2 hour drug treatment, the BNP1350, BNP1394, Topotecan, and 9-NH2-camptothecin were removed, cells were washed with drug-free media (200 μL) and then drug-free media (200 μL) was added to the cells and cells were allowed to continue growing at 37° C. with 5% CO2 before the SRB assay was performed (total experiment time from time of seeding was 5 days, during which time a total of 5 cell doublings had occurred).
(§6) The sulforhodamine B (SRB) cytotoxicity assay (see, Skehan P, et al., New colorimetric cytotoxicity assay for anticancer-drug screening. J. Natl. Cancer Inst. 82:1107-1112 (1990)) was used to determine the cytotoxic effects of BNP1350, BNP10120 or BNP10121 on cell growth in vitro. Briefly, after the medium was aspirated from individual plate wells, trichloroacetic acid (100 μL of 10.0% solution) was added to each well, and the plates were incubated at 4° C. for at least 1 hour. The plates were washed five-times with water using an automated microplate washer (Model EL 404, Bio-Tek Instruments), SRB solution (100 μL of 0.4 grams SRB dissolved in 100 mL 1.0 percent acetic acid) was added, and plates remained at room temperature for 15 minutes. The plates were then washed five-times using acetic acid (1.0%), air dried, and bound dye was solubilized in Tris base (150 μL, 10 mM). […]

A2780/WT cells = test: cells; type: cell-based, human
Protocol: as §1, §2, §3, §4, §5, §6

[1] = 2 hour drug treatment, SRB at 5 days, read-out: IC50 Test 1
[2] = 2 hour drug treatment, SRB at 5 days, read-out: IC50 Test 2
[3] = 2 hour drug treatment, SRB at 5 days, read-out: IC50 Test 3
[4] = 2 hour drug treatment, SRB at 5 days, read-out: IC50 Test 4
[5] = 2 hour drug treatment, SRB at 5 days, read-out: IC50 Test 5
[6] = average of the tests, read-out: IC50 Average
[7] = 2 hour drug treatment, SRB at 5 days, read-out: IC50 Test 6
[8] = average of Tests 1-6, read-out: IC50 Average
[9] = Homo sapiens, 2 hour drug treatment, SRB at 5 days, read-out: IC50 Test 1
[10] = Homo sapiens, 2 hour drug treatment, SRB at 5 days, read-out: IC50 Test 2
[11] = Homo sapiens, 2 hour drug treatment, SRB at 5 days, read-out: IC50 Test 3
[12] = Homo sapiens, 2 hour drug treatment, SRB at 5 days, read-out: IC50 Test 4
[13] = Homo sapiens, 2 hour drug treatment, SRB at 5 days, read-out: IC50 Test 5

SMILES	inhibition of cell growth (in words) (A2780/DX5 cells)	IC50 (A2780/DX5 cells; [1]) [nM]	IC50 (A2780/DX5 cells; [2]) [nM]	IC50 (A2780/DX5 cells; [3]) [nM]	IC50 (A2780/DX5 cells; [4]) [nM]	IC50 (A2780/DX5 cells; [5]) [nM]	IC50 (A2780/DX5 cells; [6]) [nM]	inhibition of cell growth (in words) (A2780/WT cells)	IC50 (A2780/WT cells; [1]) [nM]	IC50 (A2780/WT cells; [2]) [nM]	IC50 (A2780/WT cells; [3]) [nM]	IC50 (A2780/WT cells; [4]) [nM]	IC50 (A2780/WT cells; [5]) [nM]	IC50 (A2780/WT cells; [7]) [nM]	IC50 (A2780/WT cells; [8]) [nM]	IC50 values (in words) (A2780/DX5 cells)	IC50 values (in words) (A2780/WT cells)	further results
CC[C@@]1(O)C(=O)OCc2c1cc1n(c2=O)Cc2cc3c(N)cccc3nc2-1 [9-NH2-camptothecin, 9-amino camptothecin]	inhibitors	600	250	250	550	600	450	inhibitors	150	90	150	200	250	90	155			
CC[C@@]1(O)C(=O)OCc2c1cc1n(c2=O)Cc2cc3c(CN(C)C)c(O)ccc3nc2-1 [Topotecan, 9-dimethylaminomethyl-10-hydroxy camptothecin]	inhibitors							inhibitors										IC50 (A2780/DX5 cells; [9]): 550 nM; IC50 (A2780/DX5 cells; [10]): 800 nM; IC50 (A2780/DX5 cells; [11]): 2000 nM; IC50 (A2780/DX5 cells; [12]): 1000 nM; IC50 (A2780/DX5 cells; [13]): 2000 nM; IC50 (A2780/DX5 cells; Homo sapiens, average of the tests, read-out: IC50 Average): 1270 nM; IC50 (A2780/WT cells; [9]): 350 nM; IC50 (A2780/WT cells; [10]): 200 nM; IC50 (A2780/WT cells; [11]): 300 nM; IC50 (A2780/WT cells; [12]): 600 nM; IC50 (A2780/WT cells; [13]): 900 nM; IC50 (A2780/WT cells; Homo sapiens, 2 hour drug treatment, SRB at 5 days, read-out: IC50 Test 6): 600 nM; IC50 (A2780/WT cells; Homo sapiens, average of Tests 1-6, read-out: IC50 Average): 492 nM
CC[C@@]1(O)C(=O)OCc2c1cc1n(c2=O)Cc2c-1nc1ccccc1c2CC[Si](C)(C)C [BNP1350]	inhibitors	15	15	15	24	10	16	inhibitors	15	15	15	20	13	16	15	nanomolar	nanomolar	
CC[C@@]1(O)C(=O)OCc2c1cc1n(c2=O)Cc2c-1nc1ccccc1c2C[CH2][Ge]([CH3])([CH3])[CH3] [BNP1394, 7-[2′-trimethylgermanyl]ethyl-20(S) camptothecin]	inhibitors							inhibitors								nanomolar	nanomolar	
